According to patent US10758534B2 (Vertex Pharmaceuticals Incorporated, priority 2014, dated 2020):

target: T1, F508del (Homo sapiens, UniProt P13569, DEL508-508); experiment: Protocol 1: membrane potential optical assay (FLIPR III, voltage sensing dye), identification of potentiator compounds; type: cell-based; conditions: Table 3, compounds of Table 1
T1 construct: expressed in transfected cells
Summary of the method: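 Gating potentiation is read as a membrane-potential fluorescence change (FLIPR III, voltage-sensing dye) after one forskolin addition under a Cl− gradient, with gluconate replacing chloride, pH 7.4. Cells are F508del-expressing NIH3T3 mouse fibroblasts held 24 h at 27 °C and exposed to compound before dye loading.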

T1 sequence (P13569 with tags, fused parts or gaps DEL508-508): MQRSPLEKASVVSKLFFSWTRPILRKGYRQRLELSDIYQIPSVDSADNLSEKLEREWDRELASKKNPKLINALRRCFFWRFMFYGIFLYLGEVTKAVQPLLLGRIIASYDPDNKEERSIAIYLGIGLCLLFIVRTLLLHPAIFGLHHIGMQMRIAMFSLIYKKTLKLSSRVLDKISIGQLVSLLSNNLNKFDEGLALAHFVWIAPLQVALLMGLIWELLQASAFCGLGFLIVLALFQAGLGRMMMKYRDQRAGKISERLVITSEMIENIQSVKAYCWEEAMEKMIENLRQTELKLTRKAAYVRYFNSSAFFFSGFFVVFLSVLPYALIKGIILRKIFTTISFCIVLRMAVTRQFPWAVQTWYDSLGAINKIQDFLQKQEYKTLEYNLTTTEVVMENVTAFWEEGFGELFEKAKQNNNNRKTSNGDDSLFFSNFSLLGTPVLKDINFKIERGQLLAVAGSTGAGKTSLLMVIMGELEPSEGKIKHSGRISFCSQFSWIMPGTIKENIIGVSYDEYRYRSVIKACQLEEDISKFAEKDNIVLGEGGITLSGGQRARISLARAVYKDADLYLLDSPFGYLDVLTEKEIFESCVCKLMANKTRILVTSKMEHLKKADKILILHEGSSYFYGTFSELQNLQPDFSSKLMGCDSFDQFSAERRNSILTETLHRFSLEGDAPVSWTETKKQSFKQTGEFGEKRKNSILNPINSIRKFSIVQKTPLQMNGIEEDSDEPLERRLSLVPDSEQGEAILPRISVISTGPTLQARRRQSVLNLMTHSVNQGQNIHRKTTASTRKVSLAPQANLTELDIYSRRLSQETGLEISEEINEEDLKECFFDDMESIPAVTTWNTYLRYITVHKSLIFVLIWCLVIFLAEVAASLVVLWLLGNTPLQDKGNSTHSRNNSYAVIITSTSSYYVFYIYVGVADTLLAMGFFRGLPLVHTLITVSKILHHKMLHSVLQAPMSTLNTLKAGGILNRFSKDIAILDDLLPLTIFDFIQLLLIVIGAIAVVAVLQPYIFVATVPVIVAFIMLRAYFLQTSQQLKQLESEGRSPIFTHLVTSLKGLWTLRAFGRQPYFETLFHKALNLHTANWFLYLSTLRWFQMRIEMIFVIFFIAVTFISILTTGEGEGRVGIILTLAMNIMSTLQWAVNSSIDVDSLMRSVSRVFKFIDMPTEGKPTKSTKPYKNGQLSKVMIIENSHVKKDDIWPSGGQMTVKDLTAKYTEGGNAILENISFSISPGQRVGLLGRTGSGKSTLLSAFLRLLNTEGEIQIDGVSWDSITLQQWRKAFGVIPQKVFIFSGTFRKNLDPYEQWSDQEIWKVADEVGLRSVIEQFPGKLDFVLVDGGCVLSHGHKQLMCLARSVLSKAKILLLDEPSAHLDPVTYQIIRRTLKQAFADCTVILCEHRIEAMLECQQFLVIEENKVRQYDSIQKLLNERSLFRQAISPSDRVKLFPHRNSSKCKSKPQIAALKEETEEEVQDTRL

Compound	EC30
CC(C)COc1cc(F)cc(-c2ccc(C(=O)NS(=O)(=O)c3cccc(N)n3)c(N3C[C@H](C)CC3(C)C)n2)c1 [Compound 1289, N-[(6-amino-2-pyridyl)sulfonyl]-6-(3-fluoro-5-isobutoxy-phenyl)-2-[(4R)-2,2,4-trimethylpyrrolidin-1-yl]pyridine-3-carboxamide]	+++ (“+++” means <3 uM)
CCOc1ccc(F)c(-c2ccc(C(=O)NS(=O)(=O)c3ccc[nH]c3=O)c(Oc3c(C)cc(C)cc3C)n2)c1 [Compound 1301, 6-(5-ethoxy-2-fluoro-phenyl)-N-[(2-oxo-1H-pyridin-3-yl)sulfonyl]-2-(2,4,6-trimethylphenoxy)pyridine-3-carboxamide]	++ (“++” means between 3 uM and 10 uM)
CC(C)COc1cc(F)cc(-c2ccc(C(=O)NS(=O)(=O)c3ccn[nH]3)c(N3CCCC3(C)C)n2)c1 [Compound 1302, 2-(2,2-dimethylpyrrolidin-1-yl)-6-(3-fluoro-5-isobutoxy-phenyl)-N-(1H-pyrazol-5-ylsulfonyl)pyridine-3-carboxamide]	++ (“++” means between 3 uM and 10 uM)
CC(C)COc1cc(F)cc(-c2ccc(C(=O)NS(=O)(=O)c3cccc(N)n3)c(N3CCC4(CCC4)CC3)n2)c1 [Compound 1303, N-[(6-amino-2-pyridyl)sulfonyl]-2-(7-azaspiro[3.5]nonan-7-yl)-6-(3-fluoro-5-isobutoxy-phenyl)pyridine-3-carboxamide]	+++ (“+++” means <3 uM)
CC(C)COc1cc(F)cc(-c2ccc(C(=O)NS(=O)(=O)c3cccc(N)n3)c(N3CCC[C@H]3C(F)(F)F)n2)c1 [Compound 1304, N-[(6-amino-2-pyridyl)sulfonyl]-6-(3-fluoro-5-isobutoxy-phenyl)-2-[(2S)-2-(trifluoromethyl)pyrrolidin-1-yl]pyridine-3-carboxamide]	+++ (“+++” means <3 uM)
COc1c(C(C)(C)C)nn(Cc2c(C)cc(C)cc2C)c1C(=O)NS(=O)(=O)c1cccc(N)c1 [Compound 1305, N-(3-aminophenyl)sulfonyl-5-tert-butyl-4-methoxy-2-[(2,4,6-trimethylphenyl)methyl]pyrazole-3-carboxamide]	+++ (“+++” means <3 uM)
CC(C)COc1cc(F)cc(-c2ccc(C(=O)NS(=O)(=O)c3cccc(=O)[nH]3)c(N3CC(C)CC3(C)C)n2)c1 (stereo not drawn) [Compound 1308, 6-(3-fluoro-5-isobutoxy-phenyl)-N-[(6-oxo-1H-pyridin-2-yl)sulfonyl]-2-(2,2,4-trimethylpyrrolidin-1-yl)pyridine-3-carboxamide]	+++ (“+++” means <3 uM)
CC(C)COc1cc(F)cc(-c2ccc(C(=O)NS(=O)(=O)c3cccc(O)c3)c(N3CCC(C)(C)CC3)n2)c1 [Compound 1309, 2-(4,4-dimethyl-1-piperidyl)-6-(3-fluoro-5-isobutoxy-phenyl)-N-(3-hydroxyphenyl)sulfonyl-pyridine-3-carboxamide]	+++ (“+++” means <3 uM)
CC(C)COc1cc(F)cc(-c2ccc(C(=O)NS(=O)(=O)c3cccc(N)n3)c(N3CCCC4CCCC43)n2)c1 (stereo not drawn) [Compound 1313, 2-(2,3,4,4a,5,6,7,7a-octahydrocyclopenta[b]pyridin-1-yl)-N-[(6-amino-2-pyridyl)sulfonyl]-6-(3-fluoro-5-isobutoxy-phenyl)pyridine-3-carboxamide]	+++ (“+++” means <3 uM)
CC(Cc1ccccc1)Oc1nc(C(C)(C)C)ccc1C(=O)NS(=O)(=O)c1cccc(N)n1 (stereo not drawn) [Compound 1314, N-[(6-amino-2-pyridyl)sulfonyl]-6-tert-butyl-2-(1-methyl-2-phenyl-ethoxy)pyridine-3-carboxamide]	+++ (“+++” means <3 uM)
CC(C)COc1cc(F)cc(-c2ccc(C(=O)NS(=O)(=O)c3ccn[nH]3)c(N3CCC(c4ccccc4)CC3)n2)c1 [Compound 1315, 6-(3-fluoro-5-isobutoxy-phenyl)-2-(4-phenyl-1-piperidyl)-N-(1H-pyrazol-5-ylsulfonyl)pyridine-3-carboxamide]	+++ (“+++” means <3 uM)
Cc1ccccc1Oc1nc(C(C)(C)C)ccc1C(=O)NS(=O)(=O)c1cccc(N)n1 [Compound 1318, N-[(6-amino-2-pyridyl)sulfonyl]-6-tert-butyl-2-(2-methylphenoxy)pyridine-3-carboxamide]	+++ (“+++” means <3 uM)

Second part, the compound after the results:

EC30	Compound
+++ (“+++” means <3 uM)	Cc1ccc(-c2ccc(C(=O)NS(=O)(=O)c3cccc(N)n3)c(Oc3c(C)cc(C)cc3C)n2)nc1 [Compound 1290, N-[(6-amino-2-pyridyl)sulfonyl]-6-(5-methyl-2-pyridyl)-2-(2,4,6-trimethylphenoxy)pyridine-3-carboxamide]
++ (“++” means between 3 uM and 10 uM)	Cc1cccc(C)c1Cn1c(C(=O)NS(=O)(=O)c2ccccc2)cc2cccnc21 [Compound 1291, N-(benzenesulfonyl)-1-[(2,6-dimethylphenyl)methyl]pyrrolo[2,3-b]pyridine-2-carboxamide]
+ (“+” means greater than 10 uM)	Cc1ccc(-c2nc3c(cc2C(=O)NS(=O)(=O)c2ccn[nH]2)CCCC3(C)C)cc1 [Compound 1292, 8,8-dimethyl-2-(p-tolyl)-N-(1H-pyrazol-5-ylsulfonyl)-6,7-dihydro-5H-quinoline-3-carboxamide]
++ (“++” means between 3 uM and 10 uM)	CCCOc1cc(-c2ccc(C(=O)NS(=O)(=O)c3ccc[nH]c3=O)c(N3[C@H](C)CC[C@@H]3C)n2)ccc1Cl [Compound 1293, 6-(4-chloro-3-propoxy-phenyl)-2-[(2R,5S)-2,5-dimethylpyrrolidin-1-yl]-N-[(2-oxo-1H-pyridin-3-yl)sulfonyl]pyridine-3-carboxamide]
+++ (“+++” means <3 uM)	Cc1cc(C)c(Oc2nc(C(C)(C)C)ccc2C(=O)NS(=O)(=O)c2csc(N)n2)c(C)c1 [Compound 1294, N-(2-aminothiazol-4-yl)sulfonyl-6-tert-butyl-2-(2,4,6-trimethylphenoxy)pyridine-3-carboxamide]
+++ (“+++” means <3 uM)	Cc1cc(C)c(Oc2nc(-c3cccc(Cl)c3)ccc2C(=O)NS(=O)(=O)c2cccc(N)n2)c(C)c1 [Compound 1295, N-[(6-amino-2-pyridyl)sulfonyl]-6-(3-chlorophenyl)-2-(2,4,6-trimethylphenoxy)pyridine-3-carboxamide]
+ (“+” means greater than 10 uM)	Cc1cc(C)c(Oc2nc(-c3cccc(F)c3F)ccc2C(=O)NS(=O)(=O)c2ccc[nH]c2=O)c(C)c1 [Compound 1296, 6-(2,3-difluorophenyl)-N-[(2-oxo-1H-pyridin-3-yl)sulfonyl]-2-(2,4,6-trimethylphenoxy)pyridine-3-carboxamide]
+++ (“+++” means <3 uM)	Cc1cc(C)c(Oc2nc(C3(C)CC3)ccc2C(=O)NS(=O)(=O)c2ccc(N)cc2)c(C)c1 [Compound 1297, N-(4-aminophenyl)sulfonyl-6-(1-methylcyclopropyl)-2-(2,4,6-trimethylphenoxy)pyridine-3-carboxamide]
++ (“++” means between 3 uM and 10 uM)	COC1CCN(c2nc(C(C)(C)C)ccc2C(=O)NS(=O)(=O)c2ccc(N)cc2)CC1 [Compound 1298, N-(4-aminophenyl)sulfonyl-6-tert-butyl-2-(4-methoxy-1-piperidyl)pyridine-3-carboxamide]
++ (“++” means between 3 uM and 10 uM)	Cc1cc(C)c(Oc2nc(-c3ccc4cn(C)nc4c3)ccc2C(=O)NS(=O)(=O)c2cccc(N)n2)c(C)c1 [Compound 1299, N-[(6-amino-2-pyridyl)sulfonyl]-6-(2-methylindazol-6-yl)-2-(2,4,6-trimethylphenoxy)pyridine-3-carboxamide]
+++ (“+++” means <3 uM)	Cc1ccc(-c2ccc(C(=O)NS(=O)(=O)c3ccc[nH]c3=O)c(Oc3c(C)cc(C)cc3C)n2)cc1 [Compound 1300, N-[(2-oxo-1H-pyridin-3-yl)sulfonyl]-6-(p-tolyl)-2-(2,4,6-trimethylphenoxy)pyridine-3-carboxamide]
+++ (“+++” means <3 uM)	Cc1cc(C)c(Oc2nc(N(C)C)ccc2C(=O)NS(=O)(=O)c2cccc(N)n2)c(C)c1 [Compound 1306, N-[(6-amino-2-pyridyl)sulfonyl]-6-(dimethylamino)-2-(2,4,6-trimethylphenoxy)pyridine-3-carboxamide]
++ (“++” means between 3 uM and 10 uM)	Cc1ccc(-c2nc3c(cc2C(=O)NS(=O)(=O)c2ccc(N)cc2)CCCC3(C)C)cc1 [Compound 1307, N-(4-aminophenyl)sulfonyl-8,8-dimethyl-2-(p-tolyl)-6,7-dihydro-5H-quinoline-3-carboxamide]
+++ (“+++” means <3 uM)	Cc1cc(C)c(Oc2nc(C3(C)CC3)ccc2C(=O)NS(=O)(=O)c2cccc(N)n2)c(C)c1 [Compound 1310, N-[(6-amino-2-pyridyl)sulfonyl]-6-(1-methylcyclopropyl)-2-(2,4,6-trimethylphenoxy)pyridine-3-carboxamide]
+++ (“+++” means <3 uM)	Cc1cc(C)c(Oc2nc(C(C)(C)C)ccc2C(=O)NS(=O)(=O)c2c(C)cc[nH]c2=O)c(C)c1 [Compound 1311, 6-tert-butyl-N-[(4-methyl-2-oxo-1H-pyridin-3-yl)sulfonyl]-2-(2,4,6-trimethylphenoxy)pyridine-3-carboxamide]
++ (“++” means between 3 uM and 10 uM)	CCn1cc(-c2ccc(C(=O)NS(=O)(=O)c3cccc(N)n3)c(Oc3c(C)cc(C)cc3C)n2)cn1 [Compound 1312, N-[(6-amino-2-pyridyl)sulfonyl]-6-(1-ethylpyrazol-4-yl)-2-(2,4,6-trimethylphenoxy)pyridine-3-carboxamide]
+++ (“+++” means <3 uM)	CC(C)Oc1ccc(-c2ccc(C(=O)NS(=O)(=O)c3cccnc3N)c(N3[C@H](C)CC[C@@H]3C)n2)cn1 [Compound 1316, N-[(2-amino-3-pyridyl)sulfonyl]-2-[(2S,5R)-2,5-dimethylpyrrolidin-1-yl]-6-(6-isopropoxy-3-pyridyl)pyridine-3-carboxamide]
+++ (“+++” means <3 uM)	Cc1cc(C)c(Oc2nc(-c3ccnn3C(C)C)ccc2C(=O)NS(=O)(=O)c2cccc(N)n2)c(C)c1 [Compound 1317, N-[(6-amino-2-pyridyl)sulfonyl]-6-(2-isopropylpyrazol-3-yl)-2-(2,4,6-trimethylphenoxy)pyridine-3-carboxamide]
